In ChEMBL document CHEMBL2321872, “Synthesis and antimycobacterial activity of 2,1'-dihydropyridomycins” (ACS Med Chem Lett, 2013):

Target: Enoyl-[acyl-carrier-protein] reductase [NADH] (Mycobacterium tuberculosis, UniProt P9WGR1, S94A)

Compound: CC(C)[C@H]1OC(=O)[C@H](C)[C@H](O)[C@H](Cc2cccnc2)NC(=O)[C@@H](NC(=O)c2ncccc2O)[C@@H](C)OC1=O
- Ki: 71 µM
